Three compounds from patent publication US20250326715A1, “NOVEL MAIN PROTEASE INHIBITORS, AND COMPOSITIONS AND METHODS THEREOF” (University of Massachusetts, priority 2023, published 2025) can be followed below.

Data set [1] concerns SARS-CoV-2. In kind it is cell-based. Particulars: Huh7.5 cells, 2 μM, 24 h.
In data set [2] the target is T1, M^Pro (Severe acute respiratory syndrome coronavirus 2, UniProt P0DTD1). Format: binding.
The nature of data set [3]: in vivo. Particulars: male, C57Bl/6, mouse.
Experimental: Pharmacokinetics were evaluated in male C57Bl/6 mice, approximately 25 g. Test compounds were formulated at 0.3 mg/mL for intravenous dosing and 1 mg/mL for oral gavage. Formulation concentrations reflect free-base concentrations. Formulations were prepared by dissolving in DMSO (20× stock) and mixing 1:1 with tween-80. Prior to dosing, the formulation was diluted with sterile saline. The final formulation was 5% DMSO, 5% tween-80, 90% saline (v:v:v). Mice (n=3) were dosed at 10 μL per gram body weight. […] A total of 25 μL blood was collected at each time point. The hematocrit tubes were sealed with a wax plug and held on ice until plasma could be isolated via centrifugation in a microcentrifuge fit with a hematocrit rotor.
Drug levels were determined from 5 μL plasma. Plasma was treated with 75 μL 90/10 acetonitrile/water containing Carbamazepine as an internal standard (IS). Samples were loaded to a 96-well Millipore Multiscreen Solvinter 0.45 micron low binding PTFE hydrophilic filter plate and the filtrate was directly analyzed. All plasma samples were treated with 75 μL 90/10 acetonitrile/water with Carbamazepine as internal standard (IS) to extract the analyte and precipitate protein. The plates were agitated on ice for approximately five minutes prior to centrifugation into a collection plate. Separate standard curves were prepared in blank mouse plasma and brain homogenate and processed in parallel with the samples. The filtrate was directly analyzed by LC-MS/MS.
In data set [4] the test system is A549-hACE2 cells. In words: Cytotoxicity assay (LDH release). In kind it is cell-based, human.
Experimental: A549-hACE2 cells were treated with indicated doses of inhibitors for 24 hours. Then the media were collected for lactate dehydrogenase (LDH) assay.
Supernatant samples are transferred to a 96-well plate and an equal volume of CytoTox 96® Reagent is added to each well and incubated for 30 min.
For data set [5] the following is noted: mock-infected mice.
The nature of data set [6]: Aqueous solubility (comparison in words).
The target of data set [7] is SARS-CoV-2 M^Pro (Severe acute respiratory syndrome coronavirus 2, UniProt P0DTD1). In words: Determination of kinact/KI values for SARS-CoV-2 M^Pro (time- and concentration-dependent inactivation). Format: biochemical. How it is done: where νo is the initial velocity of uninhibited reaction and νi is the initial velocity in the presence of inhibitor. All measurements were done in triplicate. Determination of kinact/KI values for SARS-CoV-2 M^Pro
Time- and concentration-dependent inactivation assays were done by following a similar protocol as described for Ki determination. M^Pro (12.5 nM final) was treated with the peptide-substrate (30 μM final) and test inhibitor (0-80 μM for D-FF(R/Cit)-(CMK/CMKyne); 0-1.25 mM for SM136-145) at time=0 to initiate inactivation process. The total volume of the assay mixture was 50 μL. Time-dependent increase in fluorescence was monitored at 485 nm with excitation at 340 nm for a period of 20-25 min. The observed rates (kobs) for the peptide cleavage in both the presence and absence of inhibitor were determined by fitting to a single-phase association equation. The resulting kobs values were plotted against the concentrations of inhibitor and linear fits were used to derive the slope that afforded the kinact/KI values. All measurements were done in triplicate.

For data set [8], the target named is T1, M^Pro. In words: Chemoproteomic enrichment of proteins labelled by SM144 in A549-hACE2 lysate spiked with M^Pro. Format: binding, SARS-CoV-2. Particulars: 1 μM SM144, lysate spiked with 250 nM M^Pro. How it is done: The proteome-wide selectivity was evaluated via an orthogonal chemoproteomic assay. […] Subsequently, the labeled proteins were biotinylated with copper-catalyzed click chemistry in the presence of Biotin-azide, and the biotinylated proteins were selectively enriched on Streptavidin-agarose beads, proteolyzed with trypsin and analyzed by chemoproteomic analysis. […] There were, however, a few cellular off-targets, including glutathione reductase (GSHR), adenosylhomocysteinase (SAHH), aldose reductase (ALDR), S-adenosylmethionine synthase isoform type-2 (METK2), gamma-actin (ACTG), tubulin alpha-4A chain (TBA4A), ubiquitin-like modifier-activating enzyme 1 (UBA1) and junction plakoglobin (PLAK).
A549-hACE2 cell lysate was prepared as described earlier. Endogenous biotinylated proteins were precleared by incubating the lysates with streptavidin-agarose beads (25 μL for 1 mg of total protein in the lysate) at room temperature for 1 h with constant mixing on an end-over-end shaker. The mixture was centrifuged (1200 g, 3 minute) to separate the beads and the supernatant (pre-cleared lysate). […] The assay mixture was incubated at 25° C. for 30 min. Then Biotin-N3 (200 μM), TCEP (1 mM), TBTA (0.3 mM) and freshly prepared CuSO4 (4 mM) were added sequentially, and the tubes were gently tumbled at room temperature for 2 h. […]

Where two headings read alike, the source gives them in different places.

Take `CCOC(=O)C=CC(CC1CCNC1=O)NC(=O)C(Cc1ccccc1)NC(=O)C(N)Cc1ccccc1` (stereo not drawn) [SM141]: in data set [1], the “antiviral activity, in words” value is listed as “almost completely blocks viral infection”. In addition, in data set [2] (0-50 μM competitor, 5 μM SM144), the “inhibition of SM144 labeling of recombinant M^Pro” value is given as “competitively inhibited”. In addition, in data set [3] (ip), the AUC(0-inf) is 827 ng·h/mL, the area under the curve AUC(0-t) amounted to 1.6 µM·h, the highest concentration (Cmax) turned out to be 2.7 µM and the time to peak (Tmax) turned out to be 8.4 min. In data set [3] (ip), this compound had a bioavailability of 35.2% and a half-life of 48 min. In data set [3] (iv), this compound showed an AUC(0-inf) of 706 ng·h/mL, an AUC(0-t) of 1.3 µM·h, a Cmax of 3.9 µM and a mean residence time MRT inf of 24 min. Moreover, in data set [3] (iv), the time to peak (Tmax) was determined as 4.8 min, the volume of distribution (Vd) amounted to 1.6 L/kg and the half-life was 48 min. For the same compound, the “concentration up to which no notable cytotoxicity is caused” value in data set [4] (A549-hACE2 cells, 24 h, LDH) is greater than 50 µM. In data set [4] (Table 2), this compound showed a cytoxcity greater than 100 µM. Also, the “weight loss in uninfected mice” value in data set [5] was “no significant weight loss in the uninfected mice”. In addition, the “aqueous solubility, in words” value in data set [6] is “more aqueous solubility than SM142”.
As for `CCOC(=O)C=CC(CC1CCNC1=O)NC(=O)C(Cc1ccccc1)NC(=O)C(Cc1ccc(F)cc1)NC(=O)OC(C)(C)C` (stereo not drawn) [SM142], the kinact/KI in data set [7] (read-out: M^Pro kinact/KI) was determined as 183 M⁻¹ s⁻¹. The “weight loss in uninfected mice” value in data set [5] is given as “no significant weight loss in the uninfected mice”.
In the case of `C#CCOCCC(=O)NC(Cc1ccc(F)cc1)C(=O)NC(Cc1ccccc1)C(=O)NC(C=CC(=O)OCC)CC1CCNC1=O` (stereo not drawn) [SM144], in data set [2] (5 μM SM144, TAMRA-azide, in-gel fluorescence), the “limit of detection of M^Pro by the probe” value worked out at 5 pmol. Besides, in data set [8], the “proteome-wide selectivity (enriched proteins)” value is recorded as “M^Pro is the most statistically significantly enriched protein”. Moreover, in data set [7] (read-out: second-order rate constant for enzyme inactivation (kinact/KI), M^Pro), the kinact/KI was 567 M⁻¹ s⁻¹.
